Assays:
[1] = system: ApoB secretion, HepG2 cells; experiment: Quantification of the secretion of ApoB; format: cell-based; conditions: Homo sapiens, 24 hours of incubation, secreted apoB immunoprecipitated, read-out: pIC50 values (= −log IC50 value) (converted)
Description: HepG2 cells were cultured in 24-well plates in MEM Rega 3 containing 10% fetal calf serum. At 70% confluency, the medium was changed and the test compound or carrier (DMSO, 0.4% final concentration) was added. After 24 hours of incubation, the medium was transferred to Eppendorf tubes and cleared by centrifugation. A sheep antibody directed against either apoB was added to the supernatant and the mixture was kept at 8° C. for 24 hours. Then, rabbit anti-sheep antibody was added and the immune complex was allowed to precipitate for 24 hours at 8° C. The immunoprecipitate was pelleted by centrifugation for 25 minutes at 1320 g and washed twice with a buffer containing 40 mM Mops, 40 mM NaH2PO4, 100 mM NaF, 0.2 mM DTT, 5 mM EDTA, 5 mM EGTA, 1% Triton-X-100, 0.5% sodium deoxycholate (DOC), 0.1% SDS, 0.2 μM leupeptin and 0.2 μM PMSF. Radioactivity in the pellet was quantified by liquid scintillation counting.
Resulting IC50 values are enumerated in Table C.1. When the calculated IC50 was below 6, not enough data points were available at the tested concentrations to calculate an IC50 value.

MTP = MTP (Homo sapiens, UniProt P55157); experiment: MTP assay (triglyceride transfer from donor to acceptor vesicles); format: biochemical; conditions: MTP activity, percent triglyceride transfer, 37° C.; read-out: pIC50 values (= −log IC50 value) (converted)
Description: MTP activity was measured using an assay similar to one described by J. R. Wetterau and D. B. Zilversmit in Chemistry and Physics of Lipids, 38, 205-222 (1985). To prepare the donor and acceptor vesicles, the appropriate lipids in chloroform were put into a glass test tube and dried under a stream of N2. A buffer containing 15 mM Tris-HCl pH 7.5, 1 mM EDTA, 40 mM NaCl, 0.02% NaN3 (assay buffer) was added to the dried lipid. The mixture was vortexed briefly and the lipids were then allowed to hydrate for 20 min on ice. Vesicles were then prepared by bath sonication (Branson 2200) at room temperature for maximum 15 min. Butylated hydroxytoluene was included in all vesicle preparations at a concentration of 0.1%. The lipid transfer assay mixture contained donor vesicles (40 nmol phosphatidylcholine, 7.5 mol % of cardiolipin and 0.25 mol % glycerol tri [1-^14C]-oleate), acceptor vesicles (240 nmol phosphatidylcholine) and 5 mg BSA in a total volume of 675 μl in a 1.5 ml microcentrifuge tube. Test compounds were added dissolved in DMSO (0.13% final concentration). After 5 minutes of pre-incubation at 37° C., the reaction was started by the addition of MTP in 100 μl dialysis buffer. The reaction was stopped by the addition of 400 μl DEAE-52 cellulose pre-equilibrated in 15 mM Tris-HCl pH 7.5, 1 mM EDTA, 0.02% NaN3 (1:1, vol/vol). The mixture was agitated for 4 min and centrifuged for 2 min at maximum speed in an Eppendorf centrifuge (4° C.) to pellet the DEAE-52-bound donor vesicles. An aliquot of the supernatant containing the acceptor liposomes was counted and the [^14C]-counts were used to calculate the percent triglyceride transfer from donor to acceptor vesicles.
Resulting IC50 values are enumerated in Table C.2. When the calculated IC50 was below 7, not enough data points were available at the tested concentrations to calculate an IC50 value.

Chain of MTP (P55157 19-894, species assumed): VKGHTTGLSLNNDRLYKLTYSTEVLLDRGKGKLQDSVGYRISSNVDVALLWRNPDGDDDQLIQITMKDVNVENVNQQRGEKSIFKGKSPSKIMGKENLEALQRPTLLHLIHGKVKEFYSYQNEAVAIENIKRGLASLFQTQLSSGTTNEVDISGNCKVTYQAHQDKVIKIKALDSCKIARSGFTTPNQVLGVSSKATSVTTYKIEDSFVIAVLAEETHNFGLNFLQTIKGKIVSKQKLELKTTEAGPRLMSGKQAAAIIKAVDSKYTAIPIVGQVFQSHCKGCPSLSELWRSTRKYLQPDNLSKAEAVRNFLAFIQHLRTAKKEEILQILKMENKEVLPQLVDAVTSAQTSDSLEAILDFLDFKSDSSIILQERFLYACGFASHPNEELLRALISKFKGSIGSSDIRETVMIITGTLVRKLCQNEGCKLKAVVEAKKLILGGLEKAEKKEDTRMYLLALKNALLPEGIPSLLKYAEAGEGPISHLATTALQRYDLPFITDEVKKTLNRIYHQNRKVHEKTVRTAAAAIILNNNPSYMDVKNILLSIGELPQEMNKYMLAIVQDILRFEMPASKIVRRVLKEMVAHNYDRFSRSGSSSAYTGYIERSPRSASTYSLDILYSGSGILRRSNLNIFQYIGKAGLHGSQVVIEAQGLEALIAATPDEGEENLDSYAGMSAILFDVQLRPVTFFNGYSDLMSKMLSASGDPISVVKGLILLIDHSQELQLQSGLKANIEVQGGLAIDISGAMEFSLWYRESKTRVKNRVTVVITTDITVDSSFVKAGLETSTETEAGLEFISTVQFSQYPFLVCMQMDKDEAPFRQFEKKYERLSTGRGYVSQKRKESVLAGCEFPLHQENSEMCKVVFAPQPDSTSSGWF
Chain of MTP (P07237 18-508 partner, species assumed): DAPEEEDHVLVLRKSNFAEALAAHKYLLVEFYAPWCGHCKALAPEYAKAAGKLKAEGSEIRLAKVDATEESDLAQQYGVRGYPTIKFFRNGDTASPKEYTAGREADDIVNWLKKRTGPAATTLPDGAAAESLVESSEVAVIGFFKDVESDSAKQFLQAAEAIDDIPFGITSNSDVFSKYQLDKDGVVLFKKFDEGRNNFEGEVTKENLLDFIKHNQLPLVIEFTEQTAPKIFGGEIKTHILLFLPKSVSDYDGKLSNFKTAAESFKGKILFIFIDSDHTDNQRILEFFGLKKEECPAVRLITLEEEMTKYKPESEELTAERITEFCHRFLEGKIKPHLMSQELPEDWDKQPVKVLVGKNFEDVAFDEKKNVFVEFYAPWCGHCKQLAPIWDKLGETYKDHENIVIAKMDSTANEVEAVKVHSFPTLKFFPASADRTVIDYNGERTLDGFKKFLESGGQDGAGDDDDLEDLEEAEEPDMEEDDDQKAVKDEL

| IC50 [1] | IC50 (MTP) | Structure (SMILES) |
| --- | --- | --- |
| > 1 µM | > 0.1 µM | CCOC(=O)C1CCCCN1C(=O)CC1CCN(c2ccc(NC(=O)c3ccccc3-c3ccc(C(F)(F)F)cc3)cc2)CC1 (stereo not shown) [Compound 1] |
| 0.0653 µM | > 1 µM | CCOC(=O)C1CCCN(C(=O)CC2CCN(c3ccc(NC(=O)c4ccccc4-c4ccc(C(F)(F)F)cc4)cc3)CC2)C1 (stereo not shown) [Compound 2] |
| 0.0614 µM | 0.00782 µM | COC(=O)C(C)NC(=O)CC1CCN(c2ccc(NC(=O)c3ccccc3-c3ccc(C(F)(F)F)cc3)cc2)CC1 (stereo not shown) [Compound 3] |
| 0.0485 µM | 0.0413 µM | COC(=O)C(NC(=O)CC1CCN(c2ccc(NC(=O)c3ccccc3-c3ccc(C(F)(F)F)cc3)cc2)CC1)C(C)C (stereo not shown) [Compound 4] |
| < 0.03 µM | 0.00206 µM | CCOC(=O)C(C)NC(=O)CC1CCN(c2ccc(NC(=O)c3ccccc3-c3ccc(C(F)(F)F)cc3)cc2)CC1 (stereo not shown) [Compound 5] |
| < 0.03 µM | 0.00931 µM | CCOC(=O)C(Cc1c[nH]c2ccccc12)NC(=O)CC1CCN(c2ccc(NC(=O)c3ccccc3-c3ccc(C(F)(F)F)cc3)cc2)CC1 (stereo not shown) [Compound 6] |
| 0.138 µM | 0.0255 µM | CCOC(=O)C(CCSC)NC(=O)CC1CCN(c2ccc(NC(=O)c3ccccc3-c3ccc(C(F)(F)F)cc3)cc2)CC1 (stereo not shown) [Compound 7] |
| < 0.03 µM | 0.0201 µM | CCOC(=O)CC(NC(=O)CC1CCN(c2ccc(NC(=O)c3ccccc3-c3ccc(C(F)(F)F)cc3)cc2)CC1)c1ccc2c(c1)OCO2 (stereo not shown) [Compound 8] |
| > 1 µM | > 0.1 µM | COC(=O)[C@H]1CCCCN1C(=O)CC1CCN(c2ccc(NC(=O)c3ccccc3-c3ccc(C(F)(F)F)cc3)cc2)CC1 [Compound 9] |
| > 1 µM | > 0.1 µM | COC(=O)[C@@H]1CCCCN1C(=O)CC1CCN(c2ccc(NC(=O)c3ccccc3-c3ccc(C(F)(F)F)cc3)cc2)CC1 [Compound 10] |
| > 1 µM | > 0.1 µM | CCOC(=O)[C@H]1CCCN(C(=O)CC2CCN(c3ccc(NC(=O)c4ccccc4-c4ccc(C(F)(F)F)cc4)cc3)CC2)C1 [Compound 11] |
| > 1 µM | > 0.1 µM | CCOC(=O)[C@@H]1CCCN(C(=O)CC2CCN(c3ccc(NC(=O)c4ccccc4-c4ccc(C(F)(F)F)cc4)cc3)CC2)C1 [Compound 12] |
| > 1 µM | > 0.1 µM | CCOC(=O)[C@H]1CCCN1C(=O)CC1CCN(c2ccc(NC(=O)c3ccccc3-c3ccc(C(F)(F)F)cc3)cc2)CC1 [Compound 13] |
| > 1 µM | > 0.1 µM | CCOC(=O)[C@@H]1C[C@@H](O)CN1C(=O)CC1CCN(c2ccc(NC(=O)c3ccccc3-c3ccc(C(F)(F)F)cc3)cc2)CC1 [Compound 14] |
| > 1 µM | > 0.1 µM | COC(=O)C1C[C@@H](O)CN1C(=O)CC1CCN(c2ccc(NC(=O)c3ccccc3-c3ccc(C(F)(F)F)cc3)cc2)CC1 (stereo partly shown) [Compound 15] |
| > 1 µM | > 0.1 µM | COC(=O)[C@@H]1C[C@H](O)CN1C(=O)CC1CCN(c2ccc(NC(=O)c3ccccc3-c3ccc(C(F)(F)F)cc3)cc2)CC1 [Compound 16] |
| > 1 µM | 0.0056 µM | CCOC(=O)[C@H](C)NC(=O)CC1CCN(c2ccc(NC(=O)c3ccccc3-c3ccc(C(F)(F)F)cc3)cc2)CC1 [Compound 17] |
| < 0.03 µM | 0.00342 µM | CCOC(=O)[C@@H](C)NC(=O)CC1CCN(c2ccc(NC(=O)c3ccccc3-c3ccc(C(F)(F)F)cc3)cc2)CC1 [Compound 18] |
| 0.116 µM | > 0.1 µM | CCOC(=O)[C@@H](NC(=O)CC1CCN(c2ccc(NC(=O)c3ccccc3-c3ccc(C(F)(F)F)cc3)cc2)CC1)C(C)C [Compound 19] |
| < 0.03 µM | 0.00637 µM | CCOC(=O)[C@H](NC(=O)CC1CCN(c2ccc(NC(=O)c3ccccc3-c3ccc(C(F)(F)F)cc3)cc2)CC1)C(C)C [Compound 20] |
| 0.121 µM | 0.00337 µM | CCOC(=O)[C@H](NC(=O)CC1CCN(c2ccc(NC(=O)c3ccccc3-c3ccc(C(F)(F)F)cc3)cc2)CC1)c1ccccc1 [Compound 21] |
| 0.0548 µM | 0.00893 µM | CCOC(=O)[C@@H](NC(=O)CC1CCN(c2ccc(NC(=O)c3ccccc3-c3ccc(C(F)(F)F)cc3)cc2)CC1)c1ccccc1 [Compound 22] |

| IC50 [1] | IC50 (MTP) | Structure (SMILES) |
| --- | --- | --- |
| 0.841 µM | 0.0767 µM | CCOC(=O)[C@H](Cc1ccccc1)NC(=O)CC1CCN(c2ccc(NC(=O)c3ccccc3-c3ccc(C(F)(F)F)cc3)cc2)CC1 [Compound 24] |
| > 1 µM |  | CCOC(=O)[C@@H](Cc1ccccc1)NC(=O)CC1CCN(c2ccc(NC(=O)c3ccccc3-c3ccc(C(F)(F)F)cc3)cc2)CC1 [Compound 25] |
| 0.0586 µM | 0.00841 µM | CCOC(=O)CCNC(=O)CC1CCN(c2ccc(NC(=O)c3ccccc3-c3ccc(C(F)(F)F)cc3)cc2)CC1 [Compound 26] |
| 0.643 µM | > 0.1 µM | COC(=O)[C@H](CCN)NC(=O)CC1CCN(c2ccc(NC(=O)c3ccccc3-c3ccc(C(F)(F)F)cc3)cc2)CC1 [Compound 27] |
| > 1 µM | > 0.1 µM | COC(=O)[C@H](CCCN)NC(=O)CC1CCN(c2ccc(NC(=O)c3ccccc3-c3ccc(C(F)(F)F)cc3)cc2)CC1 [Compound 28] |
| > 1 µM | > 0.1 µM | COC(=O)[C@H](CCCCN)NC(=O)CC1CCN(c2ccc(NC(=O)c3ccccc3-c3ccc(C(F)(F)F)cc3)cc2)CC1 [Compound 29] |
| 0.575 µM | 0.022 µM | CCOC(=O)[C@H](CC(C)C)NC(=O)CC1CCN(c2ccc(NC(=O)c3ccccc3-c3ccc(C(F)(F)F)cc3)cc2)CC1 [Compound 30] |
| > 1 µM | 0.0811 µM | CCOC(=O)[C@H](Cc1ccc(O)cc1)NC(=O)CC1CCN(c2ccc(NC(=O)c3ccccc3-c3ccc(C(F)(F)F)cc3)cc2)CC1 [Compound 31] |
| 0.406 µM | 0.0316 µM | CCOC(=O)[C@@H]1CCCN1C(=O)CC1CCN(c2ccc(NC(=O)c3ccccc3-c3ccc(C(F)(F)F)cc3)cc2)CC1 [Compound 32] |
| > 1 µM | 0.0695 µM | CCOC(=O)CN(C)C(=O)CC1CCN(c2ccc(NC(=O)c3ccccc3-c3ccc(C(F)(F)F)cc3)cc2)CC1 [Compound 33] |
| > 1 µM | 0.0121 µM | CCOC(=O)CC[C@H](NC(=O)CC1CCN(c2ccc(NC(=O)c3ccccc3-c3ccc(C(F)(F)F)cc3)cc2)CC1)C(=O)OCC [Compound 34] |
| > 1 µM | > 0.1 µM | CCOC(=O)C1CCN(C(=O)CC2CCN(c3ccc(NC(=O)c4ccccc4-c4ccc(C(F)(F)F)cc4)cc3)CC2)CC1 [Compound 35] |
|  | 0.0394 µM | CCOC(=O)C[C@H](NC(=O)CC1CCN(c2ccc(NC(=O)c3ccccc3-c3ccc(C(F)(F)F)cc3)cc2)CC1)C(=O)OCC [Compound 36] |
| 0.0448 µM | 0.00501 µM | CCOC(=O)CNC(=O)CC1CCN(c2ccc(NC(=O)c3ccccc3-c3ccc(C(F)(F)F)cc3)cc2)CC1 [Compound 37] |
| 0.152 µM | 0.0149 µM | CCOC(=O)C(C)(C)NC(=O)CC1CCN(c2ccc(NC(=O)c3cccc(C)c3-c3ccc(C(F)(F)F)cc3)cc2)CC1 [Compound 42] |
| 0.00703 µM | 0.0104 µM | COC(=O)CNC(=O)CC1CCN(c2ccc(NC(=O)c3cccc(C)c3-c3ccc(C(F)(F)F)cc3)cc2)CC1 [Compound 43] |
| 0.962 µM |  | CCOC(=O)[C@H](C)NC(=O)CC1CCN(c2ccc(NC(=O)c3cccc(C)c3-c3ccc(C(F)(F)F)cc3)cn2)CC1 [Compound 45] |
| 0.218 µM |  | COC(=O)[C@H](C)NC(=O)CC1CCN(c2ccc(NC(=O)c3cccc(C)c3-c3ccc(C(F)(F)F)cc3)cc2)CC1 [Compound 46] |
| > 1 µM |  | CCOC(=O)[C@H](C)NC(=O)CC1CCN(c2ccc(N(C)C(=O)c3ccccc3-c3ccc(C(F)(F)F)cc3)cc2)CC1 [Compound 47] |
| 0.67 µM |  | CCOC(=O)[C@H](C)NC(=O)CC1CCN(c2ccc(NC(=O)c3cccc(C)c3-c3ccc(C(F)(F)F)cc3)nc2)CC1 [Compound 48] |
|  | 0.0104 µM | CCOC(=O)[C@H](C)NC(=O)CC1CCN(c2ccc(N(C)C(=O)c3cccc(C)c3-c3ccc(C(F)(F)F)cc3)cn2)CC1 [Compound 50] |
